The values that follow come from EP3495350B1, “COMPOUND INHIBITING FORMATION OF C-MYC/MAX/DNA COMPLEX” (National Cancer Center, priority 2016, dated 2018).

Each structure is given as a SMILES string. pIC50: −log10 of the molar value.

For one assay, the system named is MBT-2. Briefly: Cell based assay, cell viability (CellTiter-Glo), MBT-2. The conditions noted are these: 72 hours, 0 to 2 µM; read-out: cell based assay cell line 1 MBT-2 IC50. As to the method:
(§1) Commercially available bladder cancer cell lines were treated with trypsin-EDTA and seeded in each well of a 96 well plate, followed by incubation for 24 hours. After incubation, candidate compounds were added to each well at a final concentration of 0 to 2 µM. The compound-treated cells were further incubated for 72 hours. Cell viability was measured using an ATP detection method (CellTiter-Glo Luminescent Cell Viability Assay, Promega).
(§2) The selectivity of the compounds of the present disclosure to cancer cells was evaluated in the same manner as described in "2. Cell based assay".

Another assay deals with KU19-19. Put plainly: Cell based assay, cell viability (CellTiter-Glo), KU19-19. The conditions noted are these: Homo sapiens, KU-19-19; 72 hours, 0 to 2 µM; read-out: cell based assay cell line 2 KU19-19 IC50. As to the method:
as §1, §2
On the technique in general: In ATP-based viability assays light output follows the ATP content of the culture.

A further assay relates to 253J. Briefly: Cell based assay, cell viability (CellTiter-Glo), 253J. The conditions noted are these: Homo sapiens; 72 hours, 0 to 2 µM; read-out: cell based assay cell line 3 253J IC50. As to the method:
as §1, §2

The test system of another assay is UM-UC-3. Briefly: Cell based assay, cell viability (CellTiter-Glo), UM-UC-3. The conditions noted are these: Homo sapiens, UMUC3; 72 hours, 0 to 2 µM; read-out: cell based assay cell line 4 UM-UC-3 IC50. As to the method: as §1, §2

For orientation: pIC50 means the IC50 on a negative log10 scale, so that one unit is a factor of ten. `CC(=O)c1c([S+]([O-])Cc2ccc(C(F)(F)F)o2)[nH]c2c(Br)ccc(Cl)c2c1=O` (centres unmarked) [Compound 72, 3-acetyl-8-bromo-5-chloro-2-(((5-(trifluoromethyl)furan-2-yl)methyl)sulfinyl)quinolin-4(1H)-one]: the pIC50 in the assay with MBT-2 was 6.00; in the assay on KU19-19, 5.86; with 253J it was 6.08; in the assay with UM-UC-3 it was 6.09.
As to `CC(=O)c1c([S+]([O-])Cc2ccc(C#N)cc2)[nH]c2c(Br)ccc(Cl)c2c1=O` (centres unmarked) [Compound 73, 4-(((3-acetyl-8-bromo-5-chloro-4-oxo-1,4-dihydroquinolin-2-yl)sulfinyl)methyl)benzonitrile], the negative logarithm of the IC50 (pIC50) is 6.00 in the assay on MBT-2, 5.70 in the assay with KU19-19, 5.87 with 253J and 5.79 in the assay on UM-UC-3.
With `CC(=O)c1c([S+]([O-])Cc2c(F)cccc2Cl)[nH]c2c(Br)ccc(Cl)c2c1=O` (centres unmarked) [Compound 74, 3-acetyl-8-bromo-5-chloro-2-((2-chloro-6-fluorobenzyl)sulfinyl)quinolin-4(1H)-one], the pIC50 was 5.94 in the assay with MBT-2, 5.79 in the assay on KU19-19, 6.09 in the assay on 253J and 5.81 in the assay on UM-UC-3.
Consider `COc1cc(S(F)(F)(F)(F)F)ccc1C[S+]([O-])c1[nH]c2c(Br)ccc(Cl)c2c(=O)c1C(C)=O` (centres unmarked) [Compound 75, 3-acetyl-8-bromo-5-chloro-2-((2-methoxy-4-(pentafluoro-λ6-sulfanyl)benzyl)sulfinyl)quinolin-4(1H)-one], for which the pIC50 in the assay with MBT-2 is 5.98; in the assay on KU19-19 it was 5.92; with 253J it was 6.07; in the assay with UM-UC-3 it was 6.00.
As to `CC(=O)c1c([S+]([O-])Cc2cc(F)cc(S(F)(F)(F)(F)F)c2)[nH]c2c(Br)ccc(Cl)c2c1=O` (centres unmarked) [Compound 76, 3-acetyl-8-bromo-5-chloro-2-((3-fluoro-5 - (pentafluoro-λ6-sulfanyl)benzyl)sulfinyl)quinolin-4(1H)-one], the pIC50 is 5.73 with MBT-2, 5.73 with KU19-19, 5.91 in the assay with 253J and 5.86 in the assay with UM-UC-3.
Regarding `CC(=O)c1c([S+]([O-])Cc2cccc(S(F)(F)(F)(F)F)c2)[nH]c2c(Br)ccc(Cl)c2c1=O` (centres unmarked) [Compound 77, 3-acetyl-8-bromo-5-chloro-2-((3-(pentafluoro-λ6-sulfanyl)benzyl)sulfinyl)quinolin-4(1H)-one], the pIC50 is 5.84 with MBT-2, 5.86 in the assay on KU19-19, 6.05 in the assay with 253J and 5.93 with UM-UC-3.
Take `CC(=O)c1c([S+]([O-])Cc2c(F)c(F)c(F)c(F)c2F)[nH]c2c(Br)ccc(Cl)c2c1=O` (centres unmarked) [Compound 78, 3-acetyl-8-bromo-5-chloro-2-(((perfluorophenyl)methyl)sulfinyl)quinolin-4(1H)-one]: the pIC50 with MBT-2 is 5.82; in the assay with KU19-19, below 5.70; with 253J it was 5.89; in the assay with UM-UC-3, 5.86.
Turning to `CC(=O)c1c([S+]([O-])Cc2ccc(SC(F)(F)F)cc2)[nH]c2c(Cl)ccc(Cl)c2c1=O` (centres unmarked) [Compound 79, 3-acetyl-5,8-dichloro-2-((4-((trifluoromethyl)thio)benzyl)sulfinyl)quinolin-4(1H)-one], the pIC50 with MBT-2, with KU19-19, with 253J and with UM-UC-3 was below 5.70 throughout.
For `CC(=O)c1c([S+]([O-])Cc2ccc(S(F)(F)(F)(F)F)cc2)[nH]c2c(F)ccc(F)c2c1=O` (centres unmarked) [Compound 80, 3-acetyl-5,8-difluoro-2-((4-(pentafluoro-λ6-sulfanyl)benzyl)sulfinyl)quinolin-4(1H)-one], the pIC50 with MBT-2, in the assay with KU19-19, in the assay on 253J and in the assay on UM-UC-3 was below 5.70 each time.
Turning to `CC(=O)c1c([S+]([O-])Cc2ccc(C(F)(F)F)o2)[nH]c2c(F)ccc(F)c2c1=O` (centres unmarked) [Compound 81, 3-acetyl-5,8-difluoro-2-(((5-(trifluoromethyl)furan-2-yl)methyl)sulfinyl)quinolin-4(1H)-one], the pIC50 with MBT-2, in the assay with KU19-19, with 253J and in the assay on UM-UC-3 was below 5.70 throughout.
On to `CC(=O)c1c([S+]([O-])Cc2cc(C)on2)[nH]c2c(F)ccc(F)c2c1=O` (centres unmarked) [Compound 82, 3-acetyl-5,8-difluoro-2-(((5-methylisoxazol-3 - yl)methyl)sulfinyl)quinolin-4(1H)-one], for which the pIC50 in the assay with MBT-2, with KU19-19, with 253J and in the assay on UM-UC-3 was below 5.70 throughout.
As for `CC(=O)c1c([S+]([O-])Cc2ccc(I)cc2)[nH]c2c(Cl)ccc(Cl)c2c1=O` (centres unmarked) [Compound 83, 3-acetyl-5,8-dichloro-2-((4-iodobenzyl)sulfinyl)quinolin-4(1H)-one], the pIC50 is 5.87 with MBT-2, 5.80 with KU19-19, 5.85 in the assay on 253J and 5.88 with UM-UC-3.
For `CC(=O)c1c([S+]([O-])Cc2cccnc2)[nH]c2c(Br)ccc(Cl)c2c1=O` (centres unmarked) [Compound 84, 3-acetyl-8-bromo-5-chloro-2-((pyridin-3-ylmethyl)sulfinyl)quinolin-4(1H)-one], in that order: 6.17, 5.82, 6.06 and 6.12.
Consider `CC(C)C(=O)c1c([S+]([O-])Cc2ccc(SC(F)(F)F)cc2)[nH]c2c(F)ccc(F)c2c1=O` (centres unmarked) [Compound 85, 5,8-difluoro-3-isobutyryl-2-((4-((trifluoromethyl)thio)benzyl)sulfinyl)quinolin-4(1H)-one], for which the pIC50 with MBT-2, in the assay with KU19-19, with 253J and in the assay on UM-UC-3 was below 5.70 throughout.
`Cc1cc(C[S+]([O-])c2[nH]c3c(Cl)ccc(Cl)c3c(=O)c2C(=O)C(C)C)no1` (centres unmarked) [Compound 86, 5,8-dichloro-3-isobutyryl-2-(((5 - methylisoxazol-3-yl)methyl)sulfinyl)quinolin-4(1H)-one]: the pIC50 with MBT-2 is 6.09; in the assay with KU19-19 it was 5.85; in the assay with 253J, 5.97; with UM-UC-3, 5.90.
On to `O=C(c1ccccc1)c1c([S+]([O-])Cc2ccc(S(F)(F)(F)(F)F)cc2)[nH]c2c(F)ccc(F)c2c1=O` (centres unmarked) [Compound 87, 3-benzoyl-5,8-difluoro-2-((4-(pentafluoro-λ6-sulfanyl)benzyl)sulfinyl)quinolin-4(1H)-one], for which the negative logarithm of the IC50 (pIC50) in the assay on MBT-2, with KU19-19, in the assay on 253J and with UM-UC-3 was below 5.70 each time.
As for `Cc1cc(C[S+]([O-])c2[nH]c3c(Cl)ccc(Cl)c3c(=O)c2C(=O)c2ccccc2)no1` (centres unmarked) [Compound 88, 3-benzoyl-5,8-dichloro-2-(((5-methylisoxazol-3-yl)methyl)sulfinyl)quinolin-4(1H)-one], the pIC50 in the assay with MBT-2, in the assay on KU19-19, in the assay on 253J and with UM-UC-3 was below 5.70 each time.
In the case of `COC(=O)c1ccc(C[S+]([O-])c2[nH]c3c(Cl)ccc(Cl)c3c(=O)c2C(C)=O)o1` (centres unmarked) [Compound 89, methyl 5-(((3-acetyl-5,8-dichloro-4-oxo-1,4-dihydroquinolin-2-yl)sulfinyl)methyl)furan-2-carboxylate], the pIC50 in the assay with MBT-2 was 5.90; in the assay with KU19-19, below 5.70; with 253J, 5.74; in the assay on UM-UC-3, 5.83.
On to `COC(=O)c1ccc(C[S+]([O-])c2[nH]c3c(Cl)ccc(Cl)c3c(=O)c2C(C)=O)cc1` (centres unmarked) [Compound 91, methyl 4-(((3-acetyl-5,8-dichloro-4-oxo-1,4-dihydroquinolin-2-yl)sulfinyl)methyl)benzoate], for which the pIC50 in the assay on MBT-2 was 5.86; in the assay on KU19-19, below 5.70; with 253J it was below 5.70; with UM-UC-3, 5.81.
For `COc1cccc2[nH]c([S+]([O-])Cc3ccc(S(F)(F)(F)(F)F)cc3)c(C(C)=O)c(=O)c12` (centres unmarked) [Compound 93, 3-acetyl-5-methoxy-2-((4-(pentafluoro-λ6-sulfanyl)benzyl)sulfinyl)quinolin-4(1H)-one], the pIC50 in the assay on MBT-2, in the assay on KU19-19, in the assay on 253J and with UM-UC-3 was below 5.70 each time.
With `COc1cccc2[nH]c([S+]([O-])Cc3cc(C)on3)c(C(C)=O)c(=O)c12` (centres unmarked) [Compound 94, 3-acetyl-5-methoxy-2-(((5-methylisoxazol-3 - yl)methyl)sulfinyl)quinolin-4(1H)-one], the pIC50 in the assay with MBT-2 is 5.82; in the assay on KU19-19 it was below 5.70; with 253J, below 5.70; in the assay on UM-UC-3 it was below 5.70.
For the compound `Cc1cc(C[S+]([O-])c2[nH]c3c(Br)ccc(Cl)c3c(=O)c2C(=O)C(C)C)no1` (centres unmarked) [Compound 95, 8-bromo-5-chloro-3-isobutyryl-2-(((5-methylisoxazol-3-yl)methyl)sulfinyl)quinolin-4(1H)-one], the pIC50 in the assay on MBT-2 is 6.10; in the assay on KU19-19, 5.89; in the assay on 253J, 6.11; in the assay on UM-UC-3, 5.97.
Turning to `Cc1cc(C[S+]([O-])c2[nH]c3c(Br)ccc(Cl)c3c(=O)c2C(=O)C2CC2)no1` (centres unmarked) [Compound 96, 8-bromo-5-chloro-3-(cyclopropanecarbonyl)-2-(((5-methylisoxazol-3-yl)methyl)sulfinyl)quinolin-4(1H)-one], the pIC50 in the assay with MBT-2 was 5.97; with KU19-19, below 5.70; in the assay on 253J, 5.83; in the assay on UM-UC-3, 5.79.
